For assay [1], the system named is Staphylococcus aureus MW2 (mecA+). As to the kind of experiment: IC50 (growth, competition assay). Conditions: cefoxitin: subinhibitory. An outline of the steps:
(§1)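 Per plate, DsRed (540/590) and GFP (485/520) readings were normalized between the medians of the single-strain controls, after which No Treatment was fixed at 0.5. These readings came from a 1:1 mix of pre-induced fluorescent S. aureus MW2 strains with and without the resistance gene, grown for 20 h at 37 °C and 90% humidity, unshaken, in LB with a daily-set subinhibitory drug dose in 1536-well plates. Per-strain IC50 meant the dose halving the No Treatment signal, or the maximal signal.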

Assay [2] concerns Staphylococcus aureus MW2 delta-mecA (mecA-). As to the kind of experiment: IC50 (growth, competition assay). The note with it: cefoxitin: subinhibitory. The gist of the method: as §1

These results are taken from the supplement of paper PMC7695840.

By IC50 is commonly meant the point on the concentration scale where inhibition reaches its midpoint. Low values mean greater potency in that assay, high ones weaker potency in that assay.

“And” between values parts separate entries of the source, which are not always exact repeats. Equal values may be shown once. Where a name gives a salt, the structure may show the parent alone.

As to `CC(C)c1c(O)ccc2c1CC[C@H]1[C@@](C)(CO)CCC[C@]21C` [19-HYDROXYTOTAROL], the IC50 was determined as 77.4 µM in assay [1] (fluorescent label: DsRed), 111 µM in assay [1] (fluorescent label: GFP), 107 µM in assay [2] (fluorescent label: DsRed) and 65.8 µM in assay [2] (fluorescent label: GFP).
In the same order, the values of `CO/N=C(\C(=O)N[C@@H]1C(=O)N2C(C(=O)O)=C(CSC(=O)c3ccco3)CS[C@H]12)c1csc(N)n1` [EXCENEL] are less than 9.85 µM, less than 9.85 µM, less than 9.85 µM and less than 9.85 µM.
In the same order, the values of `COc1ccc(CCN(C)CCCOc2ccc(S(=O)(=O)c3c(C(C)C)n(C)c4ccccc34)cc2)cc1OC` are 14.8 µM, 14.9 µM, less than 9.85 µM and less than 9.85 µM.
As to `COc1ccc(NS(=O)(=O)c2sc3ccc(Cl)cc3c2C)cc1N1CCNCC1`, the IC50 in assay [1] (fluorescent label: DsRed) came out at 102 µM; in assay [1] (fluorescent label: GFP) it was 108 µM; in assay [2] (fluorescent label: DsRed), 22.7 µM; in assay [2] (fluorescent label: GFP), 16.5 µM.
For the compound `CN[C@H](CC(C)C)C(=O)N[C@H]1C(=O)N[C@@H](CC(N)=O)C(=O)N[C@H]2C(=O)N[C@H]3C(=O)N[C@H](C(=O)N[C@H](C(=O)O)c4cc(O)cc(O)c4-c4cc3ccc4O)[C@H](O)c3ccc(c(Cl)c3)Oc3cc2cc(c3O[C@@H]2O[C@H](CO)[C@@H](O)[C@H](O)[C@H]2O[C@H]2C[C@](C)(N)[C@H](O)[C@H](C)O2)Oc2ccc(cc2Cl)[C@H]1O` [VANCOCIN], the IC50 in assay [1] (fluorescent label: DsRed), in assay [1] (fluorescent label: GFP), in assay [2] (fluorescent label: DsRed) and in assay [2] (fluorescent label: GFP) was less than 9.85 µM in each case.
Regarding `CC(C)(C)c1nc(-c2cccc(NS(=O)(=O)c3c(F)cccc3F)c2F)c(-c2ccnc(N)n2)s1`, the IC50 in assay [1] (fluorescent label: DsRed) is 35 µM; in assay [1] (fluorescent label: GFP), 79.2 µM; in assay [2] (fluorescent label: DsRed), less than 9.85 µM; in assay [2] (fluorescent label: GFP), less than 9.85 µM.
Consider `O=c1c2ccccc2[se]n1-c1ccccc1` [EBSELEN], for which the IC50 in assay [1] (fluorescent label: DsRed), in assay [1] (fluorescent label: GFP), in assay [2] (fluorescent label: DsRed) and in assay [2] (fluorescent label: GFP) was less than 9.85 µM each time.
In the case of `Cc1cc(Nc2cc(N3CCN(C)CC3)nc(/C=C/c3ccccc3)n2)n[nH]1` [ENMD-2076], the IC50 in assay [1] (fluorescent label: DsRed) was found to be 47.6 µM; in assay [1] (fluorescent label: GFP), 55.2 µM; in assay [2] (fluorescent label: DsRed), 6.48 µM; in assay [2] (fluorescent label: GFP) it was 4.72 µM.
In the same order, the values of `CO/N=C(\C(=O)N[C@@H]1C(=O)N2C(C(=O)O)=C(COC(N)=O)CS[C@H]12)c1ccco1` [ZINACEF] are 21.3 µM, 19.3 µM, less than 9.85 µM and less than 9.85 µM.
In the same order, the values of `CCCCCCCCCCCCC[N+](C)(C)Cc1ccccc1` [ROCCAL] are less than 9.85 µM, less than 9.85 µM, less than 9.85 µM and less than 9.85 µM.
On to `CC1OC(n2cc(F)c(=O)[nH]c2=O)C(O)C1O` (stereo not given) [5-fluoro-5'-deoxyuridine], for which the IC50 in assay [1] (fluorescent label: DsRed), in assay [1] (fluorescent label: GFP), in assay [2] (fluorescent label: DsRed) and in assay [2] (fluorescent label: GFP) was less than 9.85 µM each time.
Take `N#Cc1cc([N+](=O)[O-])c2sc(C(N)=O)[n+]([O-])c2c1` [BTO-1]: the IC50 in assay [1] (fluorescent label: DsRed) is 19.5 µM; in assay [1] (fluorescent label: GFP), 18.9 µM; in assay [2] (fluorescent label: DsRed), less than 9.85 µM; in assay [2] (fluorescent label: GFP), less than 9.85 µM.
For the compound `O=C(Nc1cc(C(F)(F)F)cc(C(F)(F)F)c1)c1cc(Cl)ccc1O` [IMD0354], the concentration for half-maximal inhibition (IC50) in assay [1] (fluorescent label: DsRed), in assay [1] (fluorescent label: GFP), in assay [2] (fluorescent label: DsRed) and in assay [2] (fluorescent label: GFP) was less than 9.85 µM throughout.
Consider `COc1cc(NS(C)(=O)=O)ccc1Nc1c2ccccc2nc2ccccc12` [AMSIDYL], for which the IC50 in assay [1] (fluorescent label: DsRed) was 74.3 µM; in assay [1] (fluorescent label: GFP) it was 76.1 µM; in assay [2] (fluorescent label: DsRed) it was less than 9.85 µM; in assay [2] (fluorescent label: GFP), less than 9.85 µM.
As to `O=C1NC(=O)/C(=C/c2cccc(C(F)(F)F)c2)S1` [SMI-4a], the IC50 is less than 9.85 µM in assay [1] (fluorescent label: DsRed); less than 9.85 µM in assay [1] (fluorescent label: GFP); less than 9.85 µM in assay [2] (fluorescent label: DsRed); 12.2 µM and 14.6 µM in assay [2] (fluorescent label: GFP).
In the case of `C[C@H]1COc2c(N3CCN(C)CC3)c(F)cc3c(=O)c(C(=O)O)cn1c23` [Levofloxacin (Levaquin)], the IC50 in assay [1] (fluorescent label: DsRed), in assay [1] (fluorescent label: GFP), in assay [2] (fluorescent label: DsRed) and in assay [2] (fluorescent label: GFP) was less than 0.498 µM in each case.
For `Cn1cncc1[C@@](N)(c1ccc(Cl)cc1)c1ccc2c(c1)c(-c1cccc(Cl)c1)cc(=O)n2C` [Tipifarnib (Zarnestra)], the IC50 in assay [1] (fluorescent label: DsRed) is 29.6 µM; in assay [1] (fluorescent label: GFP) it was 15.1 µM; in assay [2] (fluorescent label: DsRed), less than 9.85 µM; in assay [2] (fluorescent label: GFP) it was 11.3 µM.
For `CC(=O)Oc1cc2c(c(C)c1OC(C)=O)CC=C1[C@@]2(C)CC[C@@]2(C)C3C[C@](C)(C(=O)O)CC[C@]3(C)CC[C@]12C` (stereo not given in full) [DIHYDROCELASTRYL DIACETATE], the half-maximal inhibitory concentration (IC50) in assay [1] (fluorescent label: DsRed), in assay [1] (fluorescent label: GFP), in assay [2] (fluorescent label: DsRed) and in assay [2] (fluorescent label: GFP) was less than 9.85 µM in each case.
`Nc1ccn([C@@H]2O[C@H](CO)[C@@H](O)C2(F)F)c(=O)n1` [Gemcitabine hydrochloride]: the IC50 in assay [1] (fluorescent label: DsRed), in assay [1] (fluorescent label: GFP), in assay [2] (fluorescent label: DsRed) and in assay [2] (fluorescent label: GFP) was less than 9.85 µM in each case.
Take `CC(=O)N1CCN(c2ccc(OCC3COC(Cn4ccnc4)(c4ccc(Cl)cc4Cl)O3)cc2)CC1` (stereo not given) [KETOZOLE]: the IC50 turned out to be 112 µM in assay [1] (fluorescent label: DsRed), 132 µM in assay [1] (fluorescent label: GFP), 50.6 µM in assay [2] (fluorescent label: DsRed) and 32.2 µM in assay [2] (fluorescent label: GFP).
Taken in the same sequence, the figures for `CC(C)c1cccc(C(C)C)c1N1C(=O)c2ccc(O)cc2C1=O` [5HPP-33] were 25.8 µM, 111 µM, 40.7 µM and less than 9.85 µM.
Regarding `O=C(/C=C/c1ccccc1)c1ccc(O)cc1O` [2',4'-DIHYDROXYCHALCONE], the IC50 in assay [1] (fluorescent label: DsRed) came to 91.7 µM; in assay [1] (fluorescent label: GFP), 111 µM; in assay [2] (fluorescent label: DsRed), 18.7 µM; in assay [2] (fluorescent label: GFP), 17.1 µM.
As for `CC1(C)C(=O)N(CCN2CCC(C(=O)c3ccc(F)cc3)CC2)c2ccccc21`, the IC50 in assay [1] (fluorescent label: DsRed) was 38.6 µM; in assay [1] (fluorescent label: GFP) it was 98.8 µM; in assay [2] (fluorescent label: DsRed), 54.1 µM; in assay [2] (fluorescent label: GFP), 16.1 µM.
In the same order, the values of `COc1cccc(C2(O)CCCCC2CN(C)C)c1` (stereo not given) [ULTRAM] are 131 µM, 135 µM, 101 µM and 60.8 µM.
In the same order, the values of `Cc1cc(CC(C)CC(C)(C)C)n(O)c(=O)c1` (stereo not given) [OCTOPIROX] are 120 µM, 106 µM, 89.5 µM and 70 µM.
